# Results taken from ChEMBL document CHEMBL1128725, “Design and synthesis of 1-heteroaryl-3-(1-benzyl-4-piperidinyl)propan-1-one derivatives as potent, selective acetylcholinesterase inhibitors” (J Med Chem, 1995).
# Experiments:
# Cholinesterase = Cholinesterase (Homo sapiens, UniProt P06276)
# Description: Concentration required to inhibit 50% of Butyrylcholinesterase obtained from human serum was determined in vitro
# Acetylcholinesterase = Acetylcholinesterase (Homo sapiens, UniProt P22303)
# Chain of Acetylcholinesterase (P22303 whole entry): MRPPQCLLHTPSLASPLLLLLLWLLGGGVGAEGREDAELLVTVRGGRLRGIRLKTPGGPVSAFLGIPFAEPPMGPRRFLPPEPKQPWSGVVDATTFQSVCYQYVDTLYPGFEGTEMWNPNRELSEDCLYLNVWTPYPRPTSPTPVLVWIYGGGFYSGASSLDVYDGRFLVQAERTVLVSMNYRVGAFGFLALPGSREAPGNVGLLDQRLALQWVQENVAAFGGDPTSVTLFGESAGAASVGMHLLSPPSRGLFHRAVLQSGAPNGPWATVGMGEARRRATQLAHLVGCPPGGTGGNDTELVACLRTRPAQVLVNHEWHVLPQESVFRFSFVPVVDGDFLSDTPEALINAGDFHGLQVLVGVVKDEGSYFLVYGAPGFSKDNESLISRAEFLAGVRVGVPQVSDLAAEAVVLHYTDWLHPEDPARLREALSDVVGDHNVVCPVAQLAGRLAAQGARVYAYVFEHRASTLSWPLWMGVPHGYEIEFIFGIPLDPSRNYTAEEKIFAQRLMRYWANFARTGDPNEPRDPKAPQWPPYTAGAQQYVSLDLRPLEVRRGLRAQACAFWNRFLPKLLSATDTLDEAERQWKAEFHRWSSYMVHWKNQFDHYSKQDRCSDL
# Description: Concentration required to inhibit 50% of Acetylcholinesterase obtained from human erythrocytes was determined in vitro
# Chain of Cholinesterase (P06276 whole entry): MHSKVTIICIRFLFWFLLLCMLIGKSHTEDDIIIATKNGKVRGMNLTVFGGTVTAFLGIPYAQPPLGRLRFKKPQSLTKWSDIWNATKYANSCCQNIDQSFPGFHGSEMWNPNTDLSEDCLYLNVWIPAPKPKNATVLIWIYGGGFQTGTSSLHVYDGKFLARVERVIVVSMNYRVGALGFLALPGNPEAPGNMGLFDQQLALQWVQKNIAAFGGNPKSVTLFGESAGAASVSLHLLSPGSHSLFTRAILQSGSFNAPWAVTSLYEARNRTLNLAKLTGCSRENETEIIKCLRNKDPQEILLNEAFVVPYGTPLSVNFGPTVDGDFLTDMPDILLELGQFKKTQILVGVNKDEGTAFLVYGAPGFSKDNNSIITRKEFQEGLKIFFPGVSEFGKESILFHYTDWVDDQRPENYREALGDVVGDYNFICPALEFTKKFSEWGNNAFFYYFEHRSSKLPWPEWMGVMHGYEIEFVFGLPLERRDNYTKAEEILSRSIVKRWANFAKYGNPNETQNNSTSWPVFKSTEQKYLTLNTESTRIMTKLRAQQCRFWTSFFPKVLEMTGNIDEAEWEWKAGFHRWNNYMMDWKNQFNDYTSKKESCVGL
SMILES,IC50 (Cholinesterase),IC50 (Acetylcholinesterase)
O=C(CCC1CCN(Cc2ccccc2)CC1)c1ccc2c(c1)OCCO2,4800 nM,30 nM
CCn1c(C)nc2cc(C(=O)CCC3CCN(Cc4ccccc4)CC3)ccc21,4200 nM,4.3 nM
Cc1nc2ccc(C(=O)CCC3CCN(Cc4ccccc4)CC3)cc2s1,3400 nM,6.8 nM
O=C(CCC1CCN(Cc2ccccc2)CC1)c1ccccc1,4300 nM,
O=C(CCC1CCN(Cc2ccccc2)CC1)c1ccc2[nH]c(-c3ccccc3)nc2c1,890 nM,33 nM
Cc1nc2cc(C(=O)CCC3CCN(Cc4ccccc4)CC3)ccc2[nH]1,6200 nM,12 nM
